Here are results for one molecule from ChEMBL document CHEMBL1137594, “Discovery of non-covalent dipeptidyl peptidase IV inhibitors which induce a conformational change in the active site” (Bioorg Med Chem Lett, 2007).

The test deals with Dipeptidyl peptidase 4 (Rattus norvegicus, UniProt P14740). The settings on record: po, read-out: Reduction.
Sequence of Dipeptidyl peptidase 4 (P14740 whole entry): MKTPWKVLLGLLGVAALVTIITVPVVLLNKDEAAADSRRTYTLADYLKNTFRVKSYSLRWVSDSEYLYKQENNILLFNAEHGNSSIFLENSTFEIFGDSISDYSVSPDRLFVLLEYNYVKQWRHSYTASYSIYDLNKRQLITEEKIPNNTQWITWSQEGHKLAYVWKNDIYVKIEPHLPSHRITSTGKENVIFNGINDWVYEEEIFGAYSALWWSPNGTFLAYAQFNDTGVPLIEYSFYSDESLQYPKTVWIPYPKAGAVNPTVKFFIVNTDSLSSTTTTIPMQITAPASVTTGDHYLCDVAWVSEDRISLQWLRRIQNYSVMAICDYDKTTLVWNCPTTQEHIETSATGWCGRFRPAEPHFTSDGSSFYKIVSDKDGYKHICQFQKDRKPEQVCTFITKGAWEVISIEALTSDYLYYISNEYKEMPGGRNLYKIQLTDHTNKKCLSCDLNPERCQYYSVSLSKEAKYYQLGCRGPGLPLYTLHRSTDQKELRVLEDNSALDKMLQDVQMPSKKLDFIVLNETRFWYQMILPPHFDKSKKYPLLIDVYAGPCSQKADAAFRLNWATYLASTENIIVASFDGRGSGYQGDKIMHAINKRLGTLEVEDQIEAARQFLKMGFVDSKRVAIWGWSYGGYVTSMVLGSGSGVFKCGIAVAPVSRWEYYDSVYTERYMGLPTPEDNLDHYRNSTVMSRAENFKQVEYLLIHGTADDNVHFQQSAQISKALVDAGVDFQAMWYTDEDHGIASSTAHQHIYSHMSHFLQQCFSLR

Description: Ex vivo DDP-IV inhibition after a 30 mpk oral administration to healthy rats compared to vehicle in an oral glucose tolerance test (OGTT)

For `NC(=O)c1ccc(OCC2(NCC(=O)c3ccsc3)CCCC2)cc1`, the inhibition at 30 mg/kg came to 24%.
